In ChEMBL document CHEMBL1135057, “A combinatorial library of indinavir analogues and its in vitro and in vivo studies” (Bioorg Med Chem Lett, 2002):

Tests used:
[1] = target: T1, Human immunodeficiency virus type 1 protease (Human immunodeficiency virus 1, UniProt Q72874); assay: Tested in vitro for potential potency against PI-resistant HIV virus by A-44 mutant enzyme variant
[2] = test system: Human immunodeficiency virus 1; assay: Inhibition of the spread of viral infection in MT-4 human T-lymphoid cells infected by IIIb isolate; type: functional; conditions: read-out: CIC95
[3] = target: T1, Human immunodeficiency virus type 1 protease; assay: Tested in vitro for the ability to inhibit cleavage of a substrate by the wild type HIV-1 protease
[4] = target: T1, Human immunodeficiency virus type 1 protease; assay: In vitro inhibitory activity against wild type HIV-1 protease
[5] = target: T1, Human immunodeficiency virus type 1 protease; assay: In vitro inhibitory activity against mutant HIV-1 (A-44)protease
[6] = Tested for the pharmacokinetic data, maximum concentration (Cmax) in dog; type: ADME, organism-based, Canis lupus familiaris; conditions: in vivo
[7] = Tested for the pharmacokinetic data, area under the curve of concentration versus time in dog; type: ADME, organism-based, Canis lupus familiaris; conditions: in vivo
[8] = species on record: Canis familiaris; assay: Tested for the pharmacokinetic data, time required to reach Cmax (Tmax) in dog; type: ADME, organism-based, Canis lupus familiaris; conditions: in vivo
[9] = Tested for the half life period in dog; type: ADME, organism-based, Canis lupus familiaris; conditions: in vivo
[10] = Tested for the pharmacokinetic data, area under the curve of concentration versus time in dog at dosage of 10 mpk; type: ADME, organism-based, Canis lupus familiaris; conditions: in vivo, 10 mg/kg
[11] = Tested for the half life period in dog at dosage of 10 mpk; type: ADME, organism-based, Canis lupus familiaris; conditions: in vivo, 10 mg/kg
[12] = Tested for the pharmacokinetic data, maximum concentration (Cmax) in dog at dosage of 10 mpk; type: ADME, organism-based, Canis lupus familiaris; design: dose 10 mpk; conditions: in vivo, 10 mg/kg
[13] = Tested for the pharmacokinetic data, time required to reach Cmax (Tmax) in dog at dosage of 10 mpk; type: ADME, organism-based, Canis lupus familiaris; conditions: in vivo, 10 mg/kg
[14] = Human immunodeficiency virus 1, T-lymphoid

| Cmax [6] | AUC [7] | T max [8] | half-life [9] | Structure (SMILES) | IC95 [2, 14] | IC50 [4] | IC50 [5] | also measured |
| --- | --- | --- | --- | --- | --- | --- | --- | --- |
| – | – | – | – | CN(C)c1ccc2cc(S(=O)(=O)N3CCN(C[C@@H](O)C[C@@H](Cc4ccccc4)C(=O)N[C@H]4c5ccccc5C[C@H]4O)[C@H](C(=O)NC(C)(C)C)C3)ccc2n1 | 12.5 nM | – | – | IC50 [1]: < 0.6 nM; IC50 [3]: < 0.1 nM |
| – | – | – | – | CC(C)(C)NC(=O)[C@@H]1CN(Cc2nc3ccccc3o2)CCN1C[C@@H](O)C[C@@H](Cc1ccccc1)C(=O)N[C@@H]1c2ccccc2C[C@H]1O | 400 nM | 1.2 nM | 66 nM | – |
| – | – | – | – | CC1=CSC2C(CN3CCN(C[C@@H](O)C[C@@H](Cc4ccccc4)C(=O)N[C@@H]4c5ccccc5C[C@H]4O)[C@H](C(=O)NC(C)(C)C)C3)N=CN12 (some centres not stated) | > 400 nM | 6.7 nM | 378 nM | – |
| – | – | – | – | Cn1nc(C(F)(F)F)cc1-c1ccc(CN2CCN(C[C@@H](O)C[C@@H](Cc3ccccc3)C(=O)N[C@@H]3c4ccccc4C[C@H]3O)[C@H](C(=O)NC(C)(C)C)C2)s1 | 25 nM | 0.13 nM | 0.6 nM | – |
| – | – | – | – | CC(C)(C)NC(=O)[C@@H]1CN(Cc2cc3cc(F)ccc3o2)CCN1C[C@@H](O)C[C@@H](Cc1ccccc1)C(=O)N[C@@H]1c2ccccc2C[C@H]1O | 200 nM | 0.94 nM | 46 nM | – |
| 313 nM | 0.291 µM·h | 40 min | 43.4 min | CC(C)(C)NC(=O)[C@@H]1CN(Cc2cccnc2)CCN1C[C@@H](O)C[C@@H](Cc1cccnc1)C(=O)N[C@@H]1c2ccccc2C[C@H]1O | – | – | – | – |
| – | – | – | – | CC(C)(C)NC(=O)[C@@H]1CN(CCCC(F)(F)F)CCN1C[C@@H](O)C[C@@H](Cc1ccccc1)C(=O)N[C@@H]1c2ccccc2C[C@H]1O | > 400 nM | 15.3 nM | 568 nM | – |
| – | – | – | – | CC(C)(C)NC(=O)[C@@H]1CN(Cc2cc3ccccc3o2)CCN1C[C@@H](O)C[C@@H](Cc1ccccc1)C(=O)NC1c2ccccc2C[C@H]1O (some centres not stated) | 50 nM | 0.49 nM | 24 nM | – |
| – | – | – | – | Cn1cc(CN2CCN(C[C@@H](O)C[C@@H](Cc3ccccc3)C(=O)N[C@@H]3c4ccccc4C[C@H]3O)[C@H](C(=O)NC(C)(C)C)C2)c2ccccc21 | > 400 nM | 6.7 nM | 332 nM | – |
| – | – | – | – | CC(C)(C)NC(=O)[C@@H]1CN(CC2(c3ccccc3)CC2)CCN1C[C@@H](O)C[C@@H](Cc1ccccc1)C(=O)N[C@@H]1c2ccccc2C[C@H]1O | > 400 nM | 7.7 nM | 257 nM | – |
| 378 nM | 0.371 µM·h | 40 min | 39.2 min | C[C@@H]1CC[C@@H](O)[C@@H]1NC(=O)[C@H](Cc1ccc(F)cc1)C[C@H](O)CN1CCN(Cc2cccnc2)C[C@H]1C(=O)NC(C)(C)C | – | – | – | – |
| – | – | – | – | Cn1cc(CN2CCN(C[C@@H](O)C[C@@H](Cc3ccccc3)C(=O)N[C@@H]3c4ccccc4C[C@H]3O)[C@H](C(=O)NC(C)(C)C)C2)ccc1=O | 400 nM | 2.2 nM | 131 nM | – |
| 195 nM | 0.197 µM·h | 40 min | 48.2 min | CC(C)(C)NC(=O)[C@@H]1CN(Cc2cccnc2)CCN1C[C@@H](O)C[C@@H](Cc1ccc(F)cc1)C(=O)N[C@@H]1c2cccc(F)c2C[C@H]1O | – | – | – | – |
| – | – | – | – | CN(C)c1ccc2ccc(S(=O)(=O)N3CCN(C[C@@H](O)C[C@@H](Cc4ccccc4)C(=O)N[C@@H]4c5ccccc5C[C@H]4O)[C@H](C(=O)NC(C)(C)C)C3)cc2n1 | 50 nM | 0.22 nM | 2.2 nM | – |
| – | – | – | – | CC(C)(C)NC(=O)[C@@H]1CN(Cc2ncc(-c3ccccc3)s2)CCN1C[C@@H](O)C[C@@H](Cc1ccccc1)C(=O)N[C@@H]1c2ccccc2C[C@H]1O | 50 nM | 0.26 nM | 2 nM | – |
| – | – | – | – | CC(C)(C)NC(=O)[C@@H]1CN(Cc2noc3ccccc23)CCN1C[C@@H](O)C[C@@H](Cc1ccccc1)C(=O)NC1c2ccccc2C[C@H]1O (some centres not stated) | 400 nM | 1.17 nM | 71.5 nM | – |
| – | – | – | – | CC(C)(C)NC(=O)[C@@H]1CN(Cc2nc3ccccc3s2)CCN1C[C@@H](O)C[C@@H](Cc1ccccc1)C(=O)N[C@@H]1c2ccccc2C[C@H]1O | 400 nM | 1.2 nM | 71.7 nM | – |
| – | – | – | – | CC(C)(C)NC(=O)[C@@H]1CN(Cc2cccc(C(C)(C)NC(=O)OC(C)(C)C)c2)CCN1C[C@@H](O)C[C@@H](Cc1ccccc1)C(=O)N[C@@H]1c2ccccc2C[C@H]1O | > 400 nM | 28 nM | 392 nM | – |

| Cmax [6] | AUC [7] | T max [8] | half-life [9] | Structure (SMILES) | IC95 [2, 14] | IC50 [4] | IC50 [5] | also measured |
| --- | --- | --- | --- | --- | --- | --- | --- | --- |
| – | – | – | – | CC(C)(C)NC(=O)[C@@H]1CN(Cc2ncc(-c3ccccc3)s2)CCN1C[C@@H](O)C[C@@H](Cc1ccccc1)C(=O)N[C@H]1c2ccccc2C[C@H]1O | 25 nM | – | – | IC50 [1]: < 0.6 nM; IC50 [3]: < 0.1 nM |
| 148 nM | 0.236 µM·h | 40 min | 48.2 min | CC(C)(C)NC(=O)[C@@H]1CN(Cc2cccnc2)CCN1C[C@@H](O)C[C@@H](CC1CCCCC1)C(=O)NC1c2cccc(F)c2C[C@H]1O (single isomer, unassigned) | – | – | – | – |
| 524 nM | 0.464 µM·h | 40 min | 23.4 min | C[C@@H]1CC[C@@H](O)C1NC(=O)[C@H](Cc1cccnc1)C[C@H](O)CN1CCN(Cc2cccnc2)C[C@H]1C(=O)NC(C)(C)C (single isomer, unassigned) | – | – | – | – |
| 180 nM | 0.181 µM·h | 40 min | 50.5 min | CC(C)(C)NC(=O)[C@@H]1CN(Cc2cccnc2)CCN1C[C@@H](O)C[C@@H](Cc1ccc(F)cc1)C(=O)NC1c2cccc(Cl)c2C[C@H]1O (single isomer, unassigned) | – | – | – | – |
| 996 nM | 0.839 µM·h | 40 min | 19 min | C[C@@H]1CC[C@@H](O)C1NC(=O)[C@H](CC1CC1)C[C@H](O)CN1CCN(Cc2cccnc2)C[C@H]1C(=O)NC(C)(C)C (single isomer, unassigned) | – | – | – | AUC [10]: 5.28 µM·h; half-life [11]: 41 min; Cmax [12]: 6620 nM; Tmax [13]: 45 min |
| 483 nM | 0.504 µM·h | 40 min | 42.5 min | C[C@@H]1CC[C@@H](O)C1NC(=O)[C@H](CC1CCCCC1)C[C@H](O)CN1CCN(Cc2cccnc2)C[C@H]1C(=O)NC(C)(C)C (single isomer, unassigned) | – | – | – | AUC [10]: 3.83 µM·h; half-life [11]: 49 min; Cmax [12]: 3760 nM; Tmax [13]: 25 min |
| 220 nM | 0.227 µM·h | 40 min | 23.9 min | CC(C)(C)NC(=O)[C@@H]1CN(Cc2cccnc2)CCN1C[C@@H](O)C[C@@H](Cc1cccnc1)C(=O)NC1c2cccc(Cl)c2C[C@H]1O (single isomer, unassigned) | – | – | – | – |
| 554 nM | 0.512 µM·h | 40 min | 31.5 min | C[C@@H]1CC[C@@H](O)C1NC(=O)[C@H](Cc1ccccc1)C[C@H](O)CN1CCN(Cc2cccnc2)C[C@H]1C(=O)NC(C)(C)C (single isomer, unassigned) | – | – | – | – |
| 268 nM | 0.245 µM·h | 40 min | 28.7 min | CC(C)(C)NC(=O)[C@@H]1CN(Cc2cccnc2)CCN1C[C@@H](O)C[C@@H](Cc1cccnc1)C(=O)NC1c2cccc(F)c2C[C@H]1O (single isomer, unassigned) | – | – | – | – |
| 264 nM | 0.258 µM·h | 40 min | 44.6 min | CC(C)(C)NC(=O)[C@@H]1CN(Cc2cccnc2)CCN1C[C@@H](O)C[C@@H](Cc1ccc(F)cc1)C(=O)NC1c2ccccc2C[C@H]1O (single isomer, unassigned) | – | – | – | – |
| 250 nM | 0.258 µM·h | 40 min | 44.5 min | CC(C)(C)NC(=O)[C@@H]1CN(Cc2cccnc2)CCN1C[C@@H](O)C[C@@H](Cc1ccccc1)C(=O)NC1c2cccc(F)c2C[C@H]1O (single isomer, unassigned) | – | – | – | – |
| 651 nM | 0.566 µM·h | 40 min | 21.2 min | CC(C)(C)NC(=O)[C@@H]1CN(Cc2cccnc2)CCN1C[C@@H](O)C[C@@H](CC1CC1)C(=O)NC1c2ccccc2C[C@H]1O (single isomer, unassigned) | – | – | – | – |
| 232 nM | 0.26 µM·h | 40 min | 54.4 min | CC(C)(C)NC(=O)[C@@H]1CN(Cc2cccnc2)CCN1C[C@@H](O)C[C@@H](CC1CCCCC1)C(=O)NC1c2ccccc2C[C@H]1O (single isomer, unassigned) | – | – | – | – |
| 626 nM | 0.566 µM·h | 40 min | 23 min | CC(C)(C)NC(=O)[C@@H]1CN(Cc2cccnc2)CCN1C[C@@H](O)C[C@@H](CC1CC1)C(=O)NC1c2cccc(Cl)c2C[C@H]1O (single isomer, unassigned) | – | – | – | – |
| 610 nM | 0.525 µM·h | 40 min | 20.2 min | CC(C)(C)NC(=O)[C@@H]1CN(Cc2cccnc2)CCN1C[C@@H](O)C[C@@H](CC1CC1)C(=O)NC1c2cccc(F)c2C[C@H]1O (single isomer, unassigned) | – | – | – | – |
| 182 nM | 0.235 µM·h | 40 min | 81 min | CC(C)(C)NC(=O)[C@@H]1CN(Cc2cccnc2)CCN1C[C@@H](O)C[C@@H](CC1CCCCC1)C(=O)NC1c2cccc(Cl)c2C[C@H]1O (single isomer, unassigned) | – | – | – | AUC [10]: 0.48 µM·h; half-life [11]: 53 min; Cmax [12]: 360 nM; Tmax [13]: 35 min |
| 250 nM | 0.256 µM·h | 40 min | 45.8 min | CC(C)(C)NC(=O)[C@@H]1CN(Cc2cccnc2)CCN1C[C@@H](O)C[C@@H](Cc1ccccc1)C(=O)NC1c2cccc(Cl)c2C[C@H]1O (single isomer, unassigned) | – | – | – | – |

| Structure (SMILES) | Cmax [6] | AUC [7] | T max [8] | half-life [9] | IC95 [2, 14] | IC50 [4] | IC50 [5] | also measured |
| --- | --- | --- | --- | --- | --- | --- | --- | --- |
| CC(C)(C)NC(=O)[C@@H]1CN(Cc2cccnc2)CCN1C[C@@H](O)C[C@@H](Cc1ccccc1)C(=O)NC1c2ccccc2C[C@H]1O.O (single isomer, unassigned) [INDINAVIR] | 358 nM | 0.307 µM·h | 40 min | 27.1 min | 50 nM | – | – | IC95 [2]: 50.5 nM |
